Converted amounts (≈) assume the structure as drawn.
Columns and labels:
[1] = tested on: H. influenzae (ATCC 49247); test: Antibacterial activity (MIC), Gram-negative type strain; type: cell-based, Haemophilus influenzae; details: Haemophilus influenzae, ATCC49247; Table 13
S. aureus (ATCC 29213) = test: Antibacterial activity (MIC), Gram-positive type strain; type: cell-based, Staphylococcus aureus; details: Staphylococcus aureus, ATCC29213; Table 13
[2] = tested on: N. gonorrheae (ATCC 49226); test: Antibacterial activity (MIC), Gram-negative type strain; type: cell-based, Neisseria gonorrhoeae; details: Neisseria gonorrhoeae, ATCC49226; Table 13
E. faecalis (ATCC 29212) = test: Antibacterial activity (MIC), Gram-positive type strain; type: cell-based, Enteroccocus faecalis; details: Enterococcus faecalis, ATCC29212; Table 13

| SMILES | MIC [1] [µg/mL] | MIC (S. aureus (ATCC 29213)) [µg/mL] | MIC [2] [µg/mL] | MIC (E. faecalis (ATCC 29212)) [µg/mL] |
| --- | --- | --- | --- | --- |
| CCNC(=O)Nc1nc2cc(-c3cnc(N4CCCS4(=O)=O)nc3)cc(-c3ccc(C)cn3)c2s1 [Compound A-28, 1-(5-(2-(1,1-dioxidoisothiazolidin-2-yl)pyrimidin-5-yl)-7-(5-methylpyridin-2-yl)benzo[d]thiazol-2-yl)-3-ethylurea] | 0.12 (≈ 0.235 µM) | 0.03 (≈ 0.0589 µM) | 0.03 (≈ 0.0589 µM) | 0.015 (≈ 0.0294 µM) |
| CCNC(=O)Nc1nc2cc(-c3cnc(NS(C)(=O)=O)nc3)cc(-c3ccc(C)cn3)c2s1 [Compound A-30, N-(5-(2-(3-ethylureido)-7-(5-methylpyridin-2-yl)benzo[d]thiazol-5-yl)pyrimidin-2-yl)methanesulfonamide] | 0.008 (≈ 0.0165 µM) | 0.06 (≈ 0.124 µM) | ≤ 0.008 | ≤ 0.008 |
| CCNC(=O)Nc1nc2cc(-c3cnc(NS(C)(=O)=O)nc3)cc(-c3ccccn3)c2s1 [Compound A-31, N-(5-(2-(3-ethylureido)-7-(pyridin-2-yl)benzo[d]thiazol-5-yl)pyrimidin-2-yl)methanesulfonamide] | 0.015 (≈ 0.0319 µM) | 2 (≈ 4.26 µM) | 0.03 (≈ 0.0639 µM) | 0.03 (≈ 0.0639 µM) |
| CCNC(=O)Nc1nc2cc(-c3cnc(NS(=O)(=O)N(C)C)nc3)cc(-c3ccccn3)c2s1 [Compound A-32, 1-[5-[2-(dimethylsulfamoylamino)pyrimidin-5-yl]-7-(2-pyridyl)-1,3-benzothiazol-2-yl]-3-ethyl urea] | 0.015 (≈ 0.0301 µM) | 0.12 (≈ 0.241 µM) | 0.03 (≈ 0.0602 µM) | 0.015 (≈ 0.0301 µM) |
| CCCS(=O)(=O)Nc1ncc(-c2cc(-c3ccccn3)c3sc(NC(=O)NCC)nc3c2)cn1 [Compound A-33, N-(5-(2-(3-ethylureido)-7-(pyridin-2-yl)benzo[d]thiazol-5-yl)pyrimidin-2-yl)propane-1-sulfonamide] | 0.12 (≈ 0.241 µM) | 0.25 (≈ 0.502 µM) | 0.03 (≈ 0.0603 µM) | 0.03 (≈ 0.0603 µM) |
| CCNC(=O)Nc1nc2cc(-c3cnc(NS(=O)(=O)C4CC4)nc3)cc(-c3ccccn3)c2s1 [Compound A-34, N-(5-(2-(3-ethylureido)-7-(pyridin-2-yl)benzo[d]thiazol-5-yl)pyrimidin-2-yl)cyclopropanesulfonamide] | 0.12 (≈ 0.242 µM) | 0.25 (≈ 0.504 µM) | 0.015 (≈ 0.0303 µM) | 0.015 (≈ 0.0303 µM) |
| CCNC(=O)Nc1nc2cc(-c3cnc(NS(=O)(=O)C4CCCC4)nc3)cc(-c3ccccn3)c2s1 [Compound A-35, N-(5-(2-(3-ethylureido)-7-(pyridin-2-yl)benzo[d]thiazol-5-yl)pyrimidin-2-yl)cyclopentanesulfonamide] | 0.03 (≈ 0.0573 µM) | ≤ 0.008 | ≤ 0.008 | ≤ 0.008 |
| CCNC(=O)Nc1nc2cc(-c3cnc(NS(=O)(=O)CC)nc3)cc(-c3ccccn3)c2s1 [Compound A-36, N-(5-(2-(3-ethylureido)-7-(pyridin-2-yl)benzo[d]thiazol-5-yl)pyrimidin-2-yl)ethanesulfonamide] | 0.03 (≈ 0.062 µM) | 0.25 (≈ 0.517 µM) | ≤ 0.008 | ≤ 0.008 |
| CCNC(=O)Nc1nc2cc(-c3cnc(NS(=O)(=O)NCC)nc3)cc(-c3ccccn3)c2s1 [Compound A-37, 1-ethyl-3-[5-[2-(ethylsulfamoylamino)pyrimidin-5-yl]-7-(2-pyridyl)-1,3-benzothiazol-2-yl]urea] | 0.12 (≈ 0.241 µM) | 0.25 (≈ 0.501 µM) | 0.03 (≈ 0.0602 µM) | 0.015 (≈ 0.0301 µM) |
| CCNC(=O)Nc1nc2cc(-c3cnc(NS(=O)(=O)N(C)C)nc3)cc(-c3ccc(C)cn3)c2s1 [Compound A-38, 1-[5-[2-(dimethylsulfamoylamino)pyrimidin-5-yl]-7-(5-methyl-2-pyridyl)-1,3-benzothiazol-2-yl]-3-ethyl urea] | 0.03 (≈ 0.0585 µM) | 0.015 (≈ 0.0293 µM) | ≤ 0.008 | ≤ 0.008 |
| CCNC(=O)Nc1nc2cc(-c3cnc(NS(=O)(=O)NCC)nc3)cc(-c3ccc(C)cn3)c2s1 [Compound A-39, 1-ethyl-3-[5-[2-(ethylsulfamoylamino)pyrimidin-5-yl]-7-(5-methyl-2-pyridyl)-1,3-benzothiazol-2-yl]urea] | 0.03 (≈ 0.0585 µM) | 0.015 (≈ 0.0293 µM) | 0.015 (≈ 0.0293 µM) | ≤ 0.008 |
| CCNC(=O)Nc1nc2cc(-c3cnc(NS(=O)(=O)C4CC4)nc3)cc(-c3ccc(C)cn3)c2s1 [Compound A-40, N-(5-(2-(3-ethylureido)-7-(5-methylpyridin-2-yl)benzo[d]thiazol-5-yl)pyrimidin-2-yl)cyclopropanesulfonamide] | 0.015 (≈ 0.0294 µM) | 0.015 (≈ 0.0294 µM) | ≤ 0.008 | ≤ 0.008 |
| CCNC(=O)Nc1nc2cc(-c3cnc(NS(=O)(=O)NC)nc3)cc(-c3ccccn3)c2s1 [Compound A-41, 1-ethyl-3-[5-[2-(methylsulfamoylamino)pyrimidin-5-yl]-7-(2-pyridyl)-1,3-benzothiazol-2-yl]urea] | 0.06 (≈ 0.124 µM) | 0.5 (≈ 1.03 µM) | 0.015 (≈ 0.031 µM) | ≤ 0.008 |

Reference: US20170007615A1, “Antibacterial Compounds” (priority 2014, published 2017)
